Data reported in patent US20060223996A1, “IL-12 modulatory compounds” (Synta Pharmaceuticals Corp., priority 2004, published 2006).

Tested on: IL-12
Experiment: Human in vitro assay: inhibition of IL-12 production in IFNγ/LPS- or IFNγ/SAC-stimulated human PBMC or THP-1 cells (ELISA)
Type: cell-based
Details: read-out: IC50 Range (representative in vitro IC50 data)
Procedure, shortened: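 PBMC (5×10^5 cells/well) primed with IFNγ 30 U/mL for 22 h then LPS 1 μg/mL, or IFNγ 100 U/mL then SAC 0.01%; THP-1 primed with IFNγ 100 U/mL for 22 h then SAC 0.025%, with compound in 0.25% DMSO. Supernatant IL-12 p70/p40 measured by sandwich ELISA after 18 h; IC50 derived; viability by MTS.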

| IC50 [nM] | Compound |
| --- | --- |
| < 1000 | CC(C)c1cccc(NC(=O)Nc2cc(OCCN3CCOCC3)nc(N3CCOCC3)n2)c1 [Compound 330, 1-(3-Isopropyl-phenyl)-3-[2-morpholin-4-yl-6-(2-morpholin-4-yl-ethoxy)-pyrimidin-4-yl]-urea] |
| < 1000 | Nc1cccc(NC(=O)Nc2cc(OCCN3CCOCC3)nc(N3CCOCC3)n2)c1 [Compound 324, 1-(3-Amino-phenyl)-3-[2-morpholin-4-yl-6-(2-morpholin-4-yl-ethoxy)-pyrimidin-4-yl]-urea] |
| ≥ 1000 | COCCN(C)c1cc(C(=O)NCCc2ccc(C)cc2)nc(N2CCOCC2)n1 [Compound 233, 6-[(2-Methoxy-ethyl)-methyl-amino]-2-morpholin-4-yl-pyrimidine-4-carboxylic acid (2-p-tolyl-ethyl)-amide] |
| < 1000 | Cc1[nH]c2ccc(NC(=O)c3cc(OCCN4CCOCC4)cc(N4CCOCC4)n3)cc2c1C [Compound 29, 6-Morpholin-4-yl-4-(2-morpholin-4-yl-ethoxy)-pyridine-2-carboxylic acid (2,3-dimethyl-1H-indol-5-yl)-amide] |
| ≥ 1000 | Cc1cccc(NNC(=O)c2cc(OCCN3CCOCC3)nc(N3CCOCC3)c2)c1 [Compound 82, 2-Morpholin-4-yl-6-(2-morpholin-4-yl-ethoxy)-isonicotinic acid N′-m-tolyl-hydrazide] |
| < 1000 | Cc1ccc([N+](=O)[O-])c(NC(=O)c2cc(OCCN3CCOCC3)nc(N3CCOCC3)n2)c1 [Compound 271, 2-Morpholin-4-yl-6-(2-morpholin-4-yl-ethoxy)-pyrimidine-4-carboxylic acid (5-methyl-2-nitro-phenyl)-amide] |
| < 1000 | Cc1[nH]c2ccc(NC(=O)c3cc(OCC(C)(C)O)nc(N4CCOCC4)n3)cc2c1C [Compound 314, 6-(2-Hydroxy-2-methyl-propoxy)-2-morpholin-4-yl-pyrimidine-4-carboxylic acid (2,3-dimethyl-1H-indol-5-yl)-amide] |
| < 1000 | Cc1ccc(NNC(=O)c2cc(N3CCOCC3)nc(OCCN3CCOCC3)n2)cc1C [Compound 81, 6-Morpholin-4-yl-2-(2-morpholin-4-yl-ethoxy)-pyrimidine-4-carboxylic acid N′-(3,4-dimethyl-phenyl)-hydrazide] |
| < 1000 | Cc1[nH]c2ccc(NC(=O)c3cc(NCC(=O)N4CCCC4)nc(N4CCOCC4)n3)cc2c1C [Compound 108, 2-Morpholin-4-yl-6-(2-oxo-2-pyrrolidin-1-yl-ethylamino)-pyrimidine-4-carboxylic acid (2,3-dimethyl-1H-indol-5-yl)-amide] |
| ≥ 1000 | O=C(Nc1ccc(Cl)c(Cl)c1)Nc1cc(N2CCOCC2)nc(OCCN2CCOCC2)n1 [Compound 119, 1-(3,4-Dichloro-phenyl)-3-[6-morpholin-4-yl-2-(2-morpholin-4-yl-ethoxy)-pyrimidin-4-yl]-urea] |
| < 1000 | CCc1c[nH]c2ccc(NC(=O)c3cc(N4CCC(C)CC4)nc(N4CCOCC4)n3)cc12 [Compound 178, 6-(4-Methyl-piperidin-1-yl)-2-morpholin-4-yl-pyrimidine-4-carboxylic acid (3-ethyl-1H-indol-5-yl)-amide] |
| ≥ 1000 | O=C(Nc1ccc2ccccc2c1)c1cc(OCCc2ccccn2)nc(N2CCOCC2)n1 [Compound 37, 2-Morpholin-4-yl-6-(2-pyridin-2-yl-ethoxy)-pyrimidine-4-carboxylic acid naphthalen-2-ylamide] |
| ≥ 1000 | COCCN(C)c1cc(C(=O)Nc2cccc(N(C)C(C)=O)c2)nc(N2CCOCC2)n1 [Compound 166, 6-[(2-Methoxy-ethyl)-methyl-amino]-2-morpholin-4-yl-pyrimidine-4-carboxylic acid [3-(acetyl-methyl-amino)-phenyl]-amide] |
| < 1000 | Cc1[nH]c2ccc(NC(=O)c3cc(OCC(=O)OC(C)(C)C)nc(N4CCOCC4)n3)cc2c1C [Compound 316, [6-(2,3-Dimethyl-1H-indol-5-ylcarbamoyl)-2-morpholin-4-yl-pyrimidin-4-yloxy]-acetic acid tert-butyl ester] |
| < 1000 | Cc1[nH]c2ccc(NC(=O)c3cc(NCC(=O)O)nc(N4CCOCC4)n3)cc2c1C [Compound 96, [6-(2,3-Dimethyl-1H-indol-5-ylcarbamoyl)-2-morpholin-4-yl-pyrimidin-4-ylamino]-acetic acid] |
| < 1000 | C/C(=N\N(C)C)c1cccc(NC(=O)c2cc(OCCN3CCOCC3)nc(N3CCOCC3)n2)c1 [Compound 153, (E)-N-(3-(1-(2,2-dimethylhydrazono)ethyl)phenyl)-2-morpholino-6-(2-morpholinoethoxy)pyrimidine-4-carboxamide] |

| IC50 [nM] | Compound |
| --- | --- |
| < 1000 | Cc1[nH]c2ccc(NC(=O)c3cc(OCCN4CCNCC4)nc(N4CCOCC4)n3)cc2c1C [Compound 246, N-(2,3-dimethyl-1H-indol-5-yl)-2-morpholino-6-(2-(piperazin-1-yl)ethoxy)pyrimidine-4-carboxamide] |
| < 1000 | CCc1cccc(NC(=O)Nc2cc(OCCN3CCOCC3)nc(N3CCOCC3)n2)c1 [Compound 131, 1-(3-Ethyl-phenyl)-3-[2-morpholin-4-yl-6-(2-morpholin-4-yl-ethoxy)-pyrimidin-4-yl]-urea] |
| < 1000 | CCN(CC)C(=O)COc1cc(C(=O)Nc2ccc3[nH]c(C)c(C)c3c2)nc(N2CCOCC2)n1 [Compound 256, 6-(2-(diethylamino)-2-oxoethoxy)-N-(2,3-dimethyl-1H-indol-5-yl)-2-morpholinopyrimidine-4-carboxamide] |
| < 1000 | Cc1[nH]c2ccc(NC(=O)c3cc(N4CCCCC4)cc(N4CCOCC4)n3)cc2c1C [Compound 182, 6′-Morpholin-4-yl-3,4,5,6-tetrahydro-2H-[1,4′]bipyridinyl-2′-carboxylic acid (2,3-dimethyl-1H-indol-5-yl)-amide] |
| < 1000 | Cc1[nH]c2ccc(NC(=O)c3cc(NCC(=O)N4CCN(C)CC4)nc(N4CCOCC4)n3)cc2c1C [Compound 106, 6-[2-(4-Methyl-piperazin-1-yl)-2-oxo-ethylamino]-2-morpholin-4-yl-pyrimidine-4-carboxylic acid (2,3-dimethyl-1H-indol-5-yl)-amide] |
| < 1000 | CC(=O)N[C@H]1CCN(c2cc(C(=O)Nc3ccc4[nH]cc(C)c4c3)nc(N3CCOCC3)n2)C1 [Compound 260, (S)-6-(3-acetamidopyrrolidin-1-yl)-N-(3-methyl-1H-indol-5-yl)-2-morpholinopyrimidine-4-carboxamide] |
| < 1000 | CCCCN(C)C(=O)CNc1cc(C(=O)Nc2ccc3[nH]c(C)c(C)c3c2)nc(N2CCOCC2)n1 [Compound 107, 6-{[(Butyl-methyl-carbamoyl)-methyl]-amino}-2-morpholin-4-yl-pyrimidine-4-carboxylic acid (2,3-dimethyl-1H-indol-5-yl)-amide] |
| ≥ 1000 | O=C1Cc2cc(NC(=O)c3cc(OCCN4CCOCC4)nc(N4CCOCC4)n3)ccc2N1 [Compound 197, 2-morpholino-6-(2-morpholinoethoxy)-N-(2-oxoindolin-5-yl)pyrimidine-4-carboxamide] |
| < 1000 | Cc1cc(C(=O)Nc2ccc3c(c2)c(C)c(C)n3O)nc(N2CCOCC2)n1 [Compound 319, 6-Methyl-2-morpholin-4-yl-pyrimidine-4-carboxylic acid (1-hydroxy-2,3-dimethyl-1H-indol-5-yl)-amide] |
| < 1000 | CCc1c(C)[nH]c2ccc(NC(=O)c3cc(N4CCC(O)CC4)nc(N4CCOCC4)n3)cc12 [Compound 177, 6-(4-Hydroxy-piperidin-1-yl)-2-morpholin-4-yl-pyrimidine-4-carboxylic acid (3-ethyl-2-methyl-1H-indol-5-yl)-amide] |
| ≥ 1000 | COCCN(C)c1cc(C(=O)Nc2cc(C)on2)nc(N2CCOCC2)n1 [Compound 237, 6-[(2-Methoxy-ethyl)-methyl-amino]-2-morpholin-4-yl-pyrimidine-4-carboxylic acid (5-methyl-isoxazol-3-yl)-amide] |
| < 1000 | Cc1[nH]c2ccc(NC(=O)c3cc(NCC(=O)N4CCC(O)CC4)nc(N4CCOCC4)n3)cc2c1C [Compound 100, 6-[2-(4-Hydroxy-piperidin-1-yl)-2-oxo-ethylamino]-2-morpholin-4-yl-pyrimidine-4-carboxylic acid (2,3-dimethyl-1H-indol-5-yl)-amide] |
| ≥ 1000 | Cc1[nH]c2ccc(NC(=O)c3cc(OCCN4CCOCC4)nc(N4CCOCC4)c3)cc2c1C [Compound 66, N-(2,3-Dimethyl-1H-indol-5-yl)-2-morpholin-4-yl-6-(2-morpholin-4-yl-ethoxy)-isonicotinamide] |
| < 1000 | CN(C)c1cccc(NC(=O)c2cc(OCCN3CCOCC3)nc(N3CCOCC3)n2)c1 [Compound 26, 2-Morpholin-4-yl-6-(2-morpholin-4-yl-ethoxy)-pyrimidine-4-carboxylic acid (3-dimethylamino-phenyl)-amide] |
| < 1000 | Cc1[nH]c2ccc(NC(=O)c3cc(OCC[N+]4([O-])CCOCC4)nc(N4CCOCC4)n3)cc2c1C [Compound 27, 2-Morpholin-4-yl-6-[2-(4-oxy-morpholin-4-yl)-ethoxy]-pyrimidine-4-carboxylic acid (2,3-dimethyl-1H-indol-5-yl)-amide] |
| < 1000 | COCCNC(=O)CNc1cc(C(=O)Nc2ccc3[nH]c(C)c(C)c3c2)nc(N2CCOCC2)n1 [Compound 98, 6-{[(2-Methoxy-ethylcarbamoyl)-methyl]-amino}-2-morpholin-4-yl-pyrimidine-4-carboxylic acid (2,3-dimethyl-1H-indol-5-yl)-amide] |

| Compound | IC50 [nM] |
| --- | --- |
| Cc1cccc(OC(=O)Nc2cc(N3CCOCC3)nc(OCCc3ccccn3)n2)c1 [Compound 88, [6-Morpholin-4-yl-2-(2-pyridin-2-yl-ethoxy)-pyrimidin-4-yl]-carbamic acid m-tolyl ester] | ≥ 1000 |
| Cc1[nH]c2ccc(NCc3cc(OCCc4ccccn4)nc(N4CCOCC4)n3)cc2c1C [Compound 84, (2,3-Dimethyl-1H-indol-5-yl)-[2-morpholin-4-yl-6-(2-pyridin-2-yl-ethoxy)-pyrimidin-4-ylmethyl]-amine] | < 1000 |
